Measured values: paper PMC2808703 (Bioorganic & medicinal chemistry, 2009)
pIC50: −log10 of the molar value. Read-outs that look alike come from different tables or passages of the source.

Experiments:
Caco-2 = settings: curated dataset; cited from earlier work
[1] = test system: phospho-Akt in BxPC-3 pancreatic cancer cells; assay: Cell inhibition of phospho-Akt in BxPC-3 pancreatic cancer cells; format: cell-based; settings: for pIC50: Homo sapiens, BXPC-3, read-out: IC50 (Akt inhibition)
[2] = test system: phospho-Akt in BxPC-3 pancreatic cancer cells; settings: hits experimentally tested and confirmed active; cited from earlier work

pIC50 [1] | Structure (SMILES) | Caco-2 permeability, experimental (Caco-2) [×10⁻⁶ cm/s] | other results
– | COc1cccc2c1C(=O)c1c(O)c3c(c(O)c1C2=O)C[C@@](O)(C(=O)CO)C[C@@H]3O[C@H]1C[C@H](N)[C@H](O)[C@H](C)O1 [doxorubicin] | 0.16 | –
< 4.30 | CC(=O)Nc1ccc(S(=O)(=O)Nc2nncs2)cc1 [Compound 11] | – | IC50 (Akt inhibition) ([1]; BxPC-3 cells, phospho-Akt): no activity
– | CO/N=C(\C(=O)N[C@@H]1C(=O)N2C(C(=O)O)=C(CSc3nc(=O)c(O)nn3C)CS[C@H]12)c1csc(N)n1 [cerftriaxone] | 0.13 | –
– | C[C@H]1[C@H](OC(=O)CCC(=O)O)O[C@@H]2O[C@@]3(C)CC[C@H]4[C@H](C)CC[C@@H]1[C@@]24OO3 [sodium artesunate] | 3.98 | –
5.00 | CCCCCCCCCC(=O)Nc1ccc(S(=O)(=O)Nc2nncs2)cc1 [Compound 13] | – | –
– | Cc1nnc(NS(=O)(=O)c2ccc(NS(=O)(=O)c3ccc4ccccc4c3)cc2)s1 [Compound 9] | – | pIC50 [2]: 4.70
– | CC(C)Cc1ccc(C(C)C(=O)O)cc1 (stereo not shown) [ibuprofen] | 52.5 | –
– | CN1CCN(CC(=O)N2c3ccccc3C(=O)Nc3cccnc32)CC1 [pirenzepine] | 0.437 | –
< 4.30 | COCCOCCOCC(=O)Nc1ccc(S(=O)(=O)Nc2nncs2)cc1 [Compound 12] | – | –
